Laboratory results from patent US20250296938A1, “Compounds that Interact with the Ras Superfamily for the Treatment of Cancers, Inflammatory Diseases, Rasopathies, and Fibrotic Disease” (SHY Therapeutics, LLC, priority 2018, published 2025).
Where two headings read alike, the source gives them in different places.

Legend:
[1] = system: MIA PaCa-2 pancreatic cancer cell line; experiment: Cell proliferation assay (DAPI); format: cell-based; conditions: Homo sapiens; for inhibition at 10 µM: read-out: % Inhibition of cell proliferation, MIA PaCa-2 % inh
Method: Cell lines: Human NSCLC cells NCI-H1975 and NCI-H1299, and tumor-derived pancreatic cancer cell lines Panc-1, MIA-PACA2, and BxPC3, were all purchased from American Type Culture Collection and grown in complete RPMI medium (BxPC3, NCI-H1975 and NCI-H1299) or DMEM-High Glucose (Panc1 and MIA-PaCa-2), supplemented with penicillin (100 U/mL), streptomycin (100 μg/mL), and 10% heat-inactivated FBS at 37° C. in a humidified incubator with 5% CO2.
Method: Cells were plated at 2000 to 5000 cells/well density in 96-wells plate and cultured ON. Small molecules to be tested were added to the cells in the final concentration of 10 µM in the presence of 0.3% DMSO and 10% FBS, and incubated for 2-4 days at 37° C. in a humidified incubator with 5% CO2. For IC50 value determination, serial dilutions of compounds were added to cells under the same conditions.
Assay: At the end of the incubation period, cell cultures were fixed with a 50-50 mixture (v/v) acetone-methanol for 10 minutes at −20° C., followed by rehydration in PBS for 10 minutes at room temperature. DNA total content was determined by staining cells with DAPI (1 ug/ml) in PBS for 10 minutes at room temperature, followed by 3 washes with PBS. After staining, DAPI fluorescence was recorded (358 nm excitation/461 nm emission) with the 96-well plate reader Molecular Devices Spectramax M3; degree of small molecule-dependent proliferation inhibition was calculated from raw data.

[2] = molecular target: T1, KRas G12D mutant (Homo sapiens, UniProt P01116, G12D); experiment: Ras GTP binding domain inhibition assay (Cy3-GTP/Cy5-GTP competition); conditions: at 20 μM
T1 construct: fused on or other part: His tag, used for capture on nickel-coated plates
Method in brief: (§1)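 Compounds tested at 20 μM or in serial dilution for IC50 against nickel-captured His-tagged GTPase, 3 hours at room temperature, with or without His-Sos GEF added for last hour. Fluorescent GTP then added at 100 nM for 45 minutes; wells washed, bound label measured by fluorescence.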

[3] = molecular target: Rac-1 (Homo sapiens, UniProt P63000); experiment: as above
Method in brief: as §1

[4] = molecular target: Rho-A (Homo sapiens, UniProt P61586); experiment: as above
Method in brief: as §1

[5] = with SOS, read-out: KRas G12D mutant + SOS: % inh.
[6] = without SOS, read-out: KRas G12D mutant: % inh.
[7] = with SOS, read-out: Rac-1 + SOS: % inh.
[8] = without SOS, read-out: Rac-1: % inh.
[9] = with SOS, read-out: Rho-A + SOS: % inh.
[10] = without SOS, read-out: Rho-A: % inh.

SMILES	inhibition at 10 µM ([1]; 2-4 days, MIA PaCa-2)	inhibition at 10 µM ([1]; MIA PaCa-2 (Table 5A))	IC50 ([1]; MIA PaCa-2 (Table 5A))	IC50 ([1]; MIA PaCa-2)	inhibition at 20 µM [2, 5]	inhibition at 20 µM [2, 6]	inhibition at 20 µM [3, 7]	inhibition at 20 µM [3, 8]	inhibition at 20 µM [4, 9]	inhibition at 20 µM [4, 10]
CN(Cc1ccccc1)Cc1nc(-c2ccccn2)nc(O)c1O	0%	–	–	–	–	–	–	–	–	–
Cn1ccc(-c2sc3nc(-c4nccn4C)nc(N[C@@H]4CC[C@H](O)C4)c3c2-c2ccccc2)n1 (racemic) [drawing 644]	–	26 to 50%	> 1 µM	–	–	–	–	–	–	–
COc1cccc(-c2csc3c(O)nc(-c4nccn4C)nc23)c1Cl [drawing 528]	76 to 100%	–	–	> 1 µM	–	–	–	–	–	–
Cn1ccnc1-c1nc(O)c2scc(-c3ccccn3)c2n1 [drawing 529]	76 to 100%	–	–	–	–	–	–	–	–	–
Oc1nc(-c2ncc3n2CCCC3)nc2c(-c3ccccn3)csc12 [drawing 530]	76 to 100%	–	–	–	–	–	–	–	–	–
Oc1nc(-c2cn3ccccc3n2)nc2c(-c3ccccn3)csc12 [drawing 531]	76 to 100%	–	–	–	–	–	–	–	–	–
COCCn1ccnc1-c1nc(O)c2scc(-c3ccccn3)c2n1 [drawing 532]	76 to 100%	–	–	–	–	–	–	–	–	–
Cc1cc(Cn2ccnc2-c2nc(O)c3scc(-c4ccccn4)c3n2)on1 [drawing 533]	76 to 100%	–	–	–	–	–	–	–	–	–
Oc1nc(-c2nccn2Cc2ccccn2)nc2c(-c3ccccn3)csc12 [drawing 534]	76 to 100%	–	–	–	–	–	–	–	–	–
COc1cccc(Cn2ccnc2-c2nc(O)c3scc(-c4ccccn4)c3n2)c1 [drawing 535]	76 to 100%	–	–	–	–	–	–	–	–	–
Cc1cnc(-c2nc(O)c3scc(-c4ccccn4)c3n2)n1C [drawing 536]	76 to 100%	–	–	–	–	–	–	–	–	–
Cc1cn(C)c(-c2nc(O)c3scc(-c4ccccn4)c3n2)n1 [drawing 537]	76 to 100%	–	–	–	–	–	–	–	–	–
Oc1nc(-c2ncc3ccccn23)nc2c(-c3ccccn3)csc12 [drawing 538]	76 to 100%	–	–	–	–	–	–	–	–	–
Oc1nc(-c2cn3cccnc3n2)nc2c(-c3ccccn3)csc12 [drawing 539]	0%	–	–	–	–	–	–	–	–	–
Oc1nc(-c2cn(-c3ccccc3)cn2)nc2c(-c3ccccn3)csc12 [drawing 540]	76 to 100%	–	–	–	–	–	–	–	–	–
COc1ccc(Cn2cnc(-c3nc(O)c4scc(-c5ccccn5)c4n3)c2)cc1 [drawing 541]	76 to 100%	–	–	–	–	–	–	–	–	–
COCCCN(C)c1nc(-c2nccn2C)nc2sc(-c3ccn(C)n3)c(-c3ccccc3)c12 [drawing 543]	76 to 100%	–	–	> 1 µM	–	–	–	–	–	–
CO[C@H]1CC[C@@H](Nc2nc(-c3nccn3C)nc(C(=O)N3CCc4c(O)cccc4C3)c2C)C1 [drawing 1036]	–	–	–	–	26 to 50%	26 to 50%	51 to 75%	51 to 75%	76 to 100%	51 to 75%

SMILES	inhibition at 10 µM ([1]; 2-4 days, MIA PaCa-2)	inhibition at 10 µM ([1]; MIA PaCa-2 (Table 5A))	IC50 ([1]; MIA PaCa-2 (Table 5A))	IC50 ([1]; MIA PaCa-2)	inhibition at 20 µM [2, 5]	inhibition at 20 µM [2, 6]	inhibition at 20 µM [3, 7]	inhibition at 20 µM [3, 8]	inhibition at 20 µM [4, 9]	inhibition at 20 µM [4, 10]
Cn1ccc(-c2sc3nc(-c4nccn4C)nc(O)c3c2-c2ccccc2)n1 [drawing 1039]	–	–	–	–	26 to 50%	26 to 50%	26 to 50%	26 to 50%	26 to 50%	26 to 50%
CO[C@H]1C[C@@H](Nc2nc(-c3ncc[nH]3)nc3sc(-c4ccn(C)n4)c(-c4ccccc4)c23)C1 [drawing 1045]	–	–	–	–	26 to 50%	26 to 50%	26 to 50%	26 to 50%	26 to 50%	26 to 50%
CO[C@H]1CC[C@@H](Nc2nc(-c3ncc[nH]3)nc3sc(-c4ccn(C)n4)c(-c4ccccc4)c23)C1 [drawing 1046]	–	–	–	–	51 to 75%	26 to 50%	51 to 75%	51 to 75%	26 to 50%	51 to 75%
CO[C@H]1CC[C@@H](Nc2nc(-c3nccn3C)nc3sc(-c4ccn(C(C)C)n4)c(-c4ccccc4)c23)C1 [drawing 1047]	–	–	–	–	51 to 75%	51 to 75%	51 to 75%	51 to 75%	76 to 100%	76 to 100%
COc1nc(-c2ccccn2)nc2c(-c3ccccn3)csc12 [drawing 1048]	–	–	–	–	1 to 25%	26 to 50%	26 to 50%	26 to 50%	26 to 50%	26 to 50%
CO[C@H]1C[C@@H](Nc2nc(-c3nccn3C)nc3sc(-c4ccn(C)n4)c(C)c23)C1 [drawing 1049]	–	–	–	–	51 to 75%	51 to 75%	51 to 75%	51 to 75%	76 to 100%	76 to 100%
CO[C@H]1CC[C@@H](Nc2nc(-c3nccn3C)nc3sc(-c4ccn(C)n4)c(C)c23)C1 [drawing 1050]	–	–	–	–	51 to 75%	26 to 50%	76 to 100%	76 to 100%	76 to 100%	76 to 100%
Cc1c(-c2ccn(C)n2)sc2nc(-c3nccn3C)nc(NCCCS(C)(=O)=O)c12 [drawing 1051]	–	–	–	–	76 to 100%	76 to 100%	51 to 75%	76 to 100%	51 to 75%	51 to 75%
Cc1c(-c2ccn(C)n2)sc2nc(-c3nccn3C)nc(NCCCC(=O)N(C)C)c12 [drawing 1052]	–	–	–	–	76 to 100%	51 to 75%	76 to 100%	76 to 100%	76 to 100%	76 to 100%
Cc1c(-c2ccn(C)n2)sc2nc(-c3nccn3C)nc(NCCOC(=O)N(C)C)c12 [drawing 1053]	–	–	–	–	76 to 100%	76 to 100%	51 to 75%	76 to 100%	51 to 75%	76 to 100%
CO[C@H]1C[C@@H](Nc2nc(-c3nccn3C)nc3sc(C(=O)NC(C)C)c(-c4ccccc4)c23)C1 [drawing 1055]	–	–	–	–	51 to 75%	51 to 75%	76 to 100%	76 to 100%	51 to 75%	51 to 75%
COCCNC(=O)c1sc2nc(-c3nccn3C)nc(N[C@H]3C[C@@H](OC)C3)c2c1-c1ccccc1 [drawing 1056]	–	–	–	–	51 to 75%	51 to 75%	76 to 100%	51 to 75%	51 to 75%	51 to 75%
CO[C@H]1C[C@@H](Nc2nc(-c3nccn3C)nc3sc(C(=O)N4CCOCC4)c(-c4ccccc4)c23)C1 [drawing 1057]	–	–	–	–	51 to 75%	51 to 75%	76 to 100%	51 to 75%	51 to 75%	51 to 75%
COC1CCN(C(=O)c2sc3nc(-c4nccn4C)nc(N[C@H]4C[C@@H](OC)C4)c3c2-c2ccccc2)C1 (some centres unmarked) [drawing 1058]	–	–	–	–	51 to 75%	51 to 75%	51 to 75%	76 to 100%	76 to 100%	26 to 50%
CO[C@H]1CC[C@@H](Nc2nc(-c3nccn3C)nc3sc(C(=O)NC(C)C)c(-c4ccccc4)c23)C1 [drawing 1059]	–	–	–	–	76 to 100%	76 to 100%	76 to 100%	76 to 100%	76 to 100%	76 to 100%
COCCNC(=O)c1sc2nc(-c3nccn3C)nc(N[C@@H]3CC[C@H](OC)C3)c2c1-c1ccccc1 [drawing 1060]	–	–	–	–	76 to 100%	76 to 100%	76 to 100%	76 to 100%	76 to 100%	76 to 100%
CO[C@H]1CC[C@@H](Nc2nc(-c3nccn3C)nc3sc(C(=O)N4CCCC4)c(-c4ccccc4)c23)C1 [drawing 1061]	–	–	–	–	51 to 75%	51 to 75%	76 to 100%	76 to 100%	76 to 100%	76 to 100%
CO[C@H]1CC[C@@H](Nc2nc(-c3nccn3C)nc3sc(C(=O)N4CCOCC4)c(-c4ccccc4)c23)C1 [drawing 1062]	–	–	–	–	51 to 75%	76 to 100%	76 to 100%	76 to 100%	76 to 100%	76 to 100%
